Test results taken from patent US20150166523A1, “BRANCHED CHAIN ALKYL HETEROAROMATIC RING DERIVATIVE” (TAISHO PHARMACEUTICAL CO., LTD., priority 2012, published 2015).

Experiments:
[1] = target: T1, orexin-2 receptor (hOX2R) (Homo sapiens, UniProt O43614); test: Measurement of orexin antagonistic activity (intracellular Ca2+ fluorescence, FDSS) on hOX2R; type: cell-based; details: CHO cells forcibly expressing hOX2R; Fluo-4AM; ligand peptide (substituted human orexin-A) 3 nM; compound preincubated 30 minutes; read-out: IC50 Value OX2
T1 construct: expressed in transfected cells; host or cells: Chinese hamster ovary (CHO) cells
T1 sequence (O43614 1-444): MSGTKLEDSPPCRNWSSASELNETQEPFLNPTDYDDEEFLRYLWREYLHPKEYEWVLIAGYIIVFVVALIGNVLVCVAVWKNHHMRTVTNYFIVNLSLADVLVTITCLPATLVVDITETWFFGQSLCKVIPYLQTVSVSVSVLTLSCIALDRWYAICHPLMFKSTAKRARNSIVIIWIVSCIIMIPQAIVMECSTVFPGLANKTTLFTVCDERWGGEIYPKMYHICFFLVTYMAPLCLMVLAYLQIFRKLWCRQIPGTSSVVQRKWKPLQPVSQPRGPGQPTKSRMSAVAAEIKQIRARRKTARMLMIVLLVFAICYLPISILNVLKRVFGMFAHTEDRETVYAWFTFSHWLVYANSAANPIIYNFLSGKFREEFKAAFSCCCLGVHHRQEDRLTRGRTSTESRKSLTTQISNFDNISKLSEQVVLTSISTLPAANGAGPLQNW
Method: (§1) The antagonistic activities of the test compounds on human orexin-1 receptor (hOX1R) and orexin-2 receptor (hOX2R) were measured by modifying from the method described in literature (Toshikatsu Okumura et al., Biochemical and Biophysical Research Communications, 280, 976-981, 2001). Chinese hamster ovary (CHO) cells forcibly expressing the hOX1R and hOX2R were seeded into a 96 well Black clear bottom plate (Nunc) at 20,000 cells per well, which were cultured in Ham's F-12 medium containing 0.1 mM MEM non-essential amino acids, 0.5 mg/mL G418, 10% fetal bovine serum (all by Invitrogen) for 16 hours under the conditions of 37° C., 5% CO2. After removing the medium, 100 μL of 0.5 μM Fluo-4AM ester (Dojin) in an assay buffer (25 mM HEPES (Dojin), Hank's balanced salt solution (Invitrogen), 0.1% bovine serum albumin, 2.5 mM probenecid, 200 μg/mL Amaranth (all by Sigma-Aldrich), pH 7.4) was added and the cells were incubated for 60 minutes at 37° C., 5% CO2. After removing the assay buffer containing fluo-4AM ester, the test compound was dissolved in dimethyl sulfoxide to be 10 mM and diluted with the assay buffer, 150 μL, of which was added and incubated for 30 minutes.
(§2) The reaction was measured for the fluorescence intensity of each well every second for 3 minutes using Functional Drug Screening System (FDSS; Hamamatsu Photonics K.K.), and the antagonistic activity was determined using the maximum fluorescence intensity as the indicator of intracellular Ca2+ concentration.

[2] = target: T2, human orexin-1 receptor (hOX1R) (Homo sapiens, UniProt O43613); test: Measurement of orexin antagonistic activity (intracellular Ca2+ fluorescence, FDSS) on hOX1R; type: cell-based; details: CHO cells forcibly expressing hOX1R; Fluo-4AM; ligand peptide (substituted human orexin-A) 300 pM; compound preincubated 30 minutes; read-out: IC50 Value OX1
T2 construct: expressed in transfected cells; host or cells: Chinese hamster ovary (CHO) cells
T2 sequence (O43613 1-425): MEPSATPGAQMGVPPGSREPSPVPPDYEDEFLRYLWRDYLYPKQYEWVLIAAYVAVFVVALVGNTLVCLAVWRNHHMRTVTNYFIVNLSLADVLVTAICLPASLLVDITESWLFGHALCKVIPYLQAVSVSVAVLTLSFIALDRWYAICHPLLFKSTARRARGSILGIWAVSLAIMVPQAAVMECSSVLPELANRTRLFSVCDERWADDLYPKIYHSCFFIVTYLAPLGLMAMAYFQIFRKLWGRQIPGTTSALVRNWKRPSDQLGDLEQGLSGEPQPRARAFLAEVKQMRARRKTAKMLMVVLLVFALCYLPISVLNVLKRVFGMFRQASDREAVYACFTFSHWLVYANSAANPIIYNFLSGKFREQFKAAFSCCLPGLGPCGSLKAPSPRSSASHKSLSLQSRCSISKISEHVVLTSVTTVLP
Method: as §1, §2

Structure (SMILES)	IC50 [1] [nM]	IC50 [2] [nM]
CCN(C(=O)c1cc(C)ccc1-n1nccn1)C(C)Cc1ccn(-c2ccc(F)cn2)n1 (centres unmarked) [Example 75, N-Ethyl-N-{1-[1-(5-fluoropyridin-2-yl)-1H-pyrazol-3-yl]propan-2-yl}-5-methyl-2-(2H-1,2,3-triazol-2-yl) benzamide]	1.7	1.4
CCN(C(=O)c1cc(C)ccc1-n1nccn1)[C@@H](C)Cn1cc(-c2ccc(O)cc2)nn1 [Example 100, N-Ethyl-N-{(2S)-1-[4-(4-hydroxyphenyl)-1H-1,2,3-triazol-1-yl]propan-2-yl}-5-methyl-2-(2H-1,2,3-triazol-2-yl)benzamide]	774	10.4
CCN(C(=O)c1ccccc1-n1nccn1)[C@@H](C)Cn1nnc(-c2ccc(F)cc2)n1 [Example 67]	75.9	1.8
Cc1ccc(-n2nccn2)c(C(=O)N(C)[C@@H](C)Cn2cc(-c3ccc(F)cn3)cn2)c1 [Example 22, N-{(2S)-1-[4-(5-Fluoropyridin-2-yl)-1H-pyrazol-1-yl]propan-2-yl}-N,5-dimethyl-2-(2H-1,2,3-triazol-2-yl) benzamide]	52.9	3.8
CCN(C(=O)c1cc(C)ccc1-n1nccn1)[C@H](C)Cn1ccc(-c2ccc(F)cn2)n1 [Example 2, N-Ethyl-N-{(2R)-1-[3-(5-fluoropyridin-2-yl)-1H-pyrazol-1-yl]propan-2-yl]-5-methyl-2-(2H-1,2,3-triazol-2-yl) benzamide]	186	17.4
CCN(C(=O)c1cc(F)ccc1-n1nccn1)[C@@H](C)Cn1cc(-c2ccc(F)cn2)nn1 [Example 78, N-Ethyl-5-fluoro-N-{(2S)-1-[4-(5-fluoropyridin-2-yl)-1H-1,2,3-triazol-1-yl]propan-2-yl}-2-(2H-1,2,3-triazol-2-yl)benzamide]	593	20.9
Cc1ccc(-n2nccn2)c(C(=O)N(C)[C@@H](C)Cc2noc(-c3ccc(F)cc3)n2)c1 [Example 59, N-{(2S)-1-[5-(4-Fluorophenyl)-1,2,4-oxadiazol-3-yl]propan-2-yl}-N,5-dimethyl-2-(2H-1,2,3-triazol-2-yl) benzamide]	10.1	0.5
COCCN(C(=O)c1cc(C)ccc1-n1nccn1)[C@@H](C)Cn1cc(-c2ccc(F)cn2)cn1 [Example 38, N-{(2S)-1-[4-(5-Fluoropyridin-2-yl)-1H-pyrazol-1-yl]propan-2-yl}-N-(2-methoxyethyl)-5-methyl-2-(2H-1,2,3-triazol-2-yl)benzamide]	351	25.5
CCN(C(=O)c1cc(F)ccc1-c1ncccn1)[C@@H](C)Cn1ccc(-c2ccc(F)cn2)n1 [Example 8, N-Ethyl-5-fluoro-N-[(2S)-1-[3-(5-fluoropyridin-2-yl)-1H-pyrazol-1-yl]propan-2-yl]-2-(pyrimidin-2-yl) benzamide]	35.3	1.5
COCCN(C(=O)c1cc(C)ccc1-n1nccn1)[C@@H](C)Cn1ccc(-c2ccc(F)cn2)n1 [Example 40, N-{(2S)-1-[3-(5-Fluoropyridin-2-yl)-1H-pyrazol-1-yl]propan-2-yl]}-N-(2-methoxyethyl-5-methyl-2-(2H-1,2,3-triazol-2-yl)benzamide]	12.4	1.4
CCN(C(=O)c1cc(C)ccc1-n1nccn1)[C@@H](C)Cn1ccc(-c2ccc(F)cn2)n1 [Example 1, N-Ethyl-N-{(2S)-1-[3-(5-fluoropyridin-2-yl)-1H-pyrazol-1-yl]propan-2-yl}-5-methyl-2-(2H-1,2,3-triazol-2-yl)benzamide]	1.1	1
CCN(C(=O)c1cc(F)ccc1-n1nccn1)[C@@H](C)Cn1cc(-c2ccc(F)cc2)nn1 [Example 84, N-Ethyl-5-fluoro-N-{(2S)-1-[4-(4-fluorophenyl)-1H-1,2,3-triazol-1-yl]propan-2-yl}-2-(2H-1,2,3-triazol-2-yl)benzamide]	51.4	3.1
CCN(C(=O)c1cc(C)ccc1-n1nccn1)[C@@H](C)Cn1cc(-c2cccc(O)c2)nn1 [Example 93, N-Ethyl-N-{(2S)-1-[4-(3-hydroxyphenyl)-1H-1,2,3-triazol-1-yl]propan-2-yl}-5-methyl-2-(2H-1,2,3-triazol-2-yl)benzamide]	7.4	1.4
Cc1ccc(-c2ncccn2)c(C(=O)N(C)[C@@H](C)Cc2noc(-c3ccc(F)cc3)n2)c1 [Example 60, N-{(2S)-1-[5-(4-Fluorophenyl)-1,2,4-oxadiazol-3-yl]propan-2-yl}-N,5-dimethyl-2-(pyrimidin-2-yl)benzamide]	45	1.3
CCN(C(=O)c1cc(Cl)ccc1-c1ncccn1)[C@@H](C)Cn1cc(-c2ccc(F)cn2)cn1 [Example 37, 5-Chloro-N-ethyl-N-{(2S)-1-[4-(5-fluoropyridin-2-yl)-1H-pyrazol-1-yl]propan-2-yl}-2-(pyrimidin-2-yl) benzamide]	83.1	7.1
CCN(C(=O)c1cc(C)ccc1-n1nccn1)[C@@H](C)Cn1cc(-c2cccc(C)c2)nn1 [Example 97, N-Ethyl-5-methyl-N-{(2S)-1-[4-(3-methylphenyl)-1H-1,2,3-triazol-1-yl]propan-2-yl}-2-(2H-1,2,3-triazol-2-yl) benzamide]	21.3	2.4
CCN(C(=O)c1c(F)cccc1-c1ncccn1)[C@@H](C)Cn1ccc(-c2ccc(F)cc2)n1 [Example 13, N-Ethyl-2-fluoro-N-[(2S)-1-[3-(4-fluorophenyl)-1H-pyrazol-1-yl]propan-2-yl)-6-(pyrimidin-2-yl)benzamide]	53.9	1.9
CCN(C(=O)c1cc(F)ccc1-c1ncccn1)[C@@H](C)Cn1cc(-c2ccc(F)c(F)c2)cn1 [Example 31, N-{(2S)-1-[4-(3,4-Difluorophenyl)-1H-pyrazol-1-yl]propan-2-yl}-N-ethyl-5-fluoro-2-(pyrimidin-2-yl)benzamide]	10.2	1
CCN(C(=O)c1nc(C)ccc1-n1nccn1)[C@@H](C)Cn1cc(-c2ccc(F)cc2)nn1 [Example 83, N-Ethyl-N-{(2S)-1-[4-(4-fluorophenyl)-1H-1,2,3-triazol-1-yl]propan-2-yl}-6-methyl-3-(2H-1,2,3-triazol-2-yl)pyridine-2-carboxamide]	308	9.9
CCN(C(=O)c1ccccc1-c1ncccn1)[C@@H](C)Cc1noc(-c2ccc(F)cc2)n1 [Example 54, N-Ethyl-N-{(2S)-1-[5-(4-fluorophenyl)-1,2,4-oxadiazol-3-yl]propan-2-yl}-2-(pyrimidin-2-yl)benzamide]	75.7	2
CCN(C(=O)c1cc(F)ccc1-c1ncccn1)[C@H](C)Cn1ccc(-c2ccc(F)cn2)n1 [Example 9, N-Ethyl-5-fluoro-N-[(2R)-1-[3-(5-fluoropyridin-2-yl)-1H-pyrazol-1-yl]propan-2-yl)-2-(pyrimidin-2-yl) benzamide]	1420	988
CCN(C(=O)c1ccccc1-n1nccn1)[C@@H](C)Cc1noc(-c2ccc(F)cn2)n1 [Example 56, N-Ethyl-N-{(2S)-1-[5-(5-fluoropyridin-2-yl)-1,2,4-oxadiazol-3-yl]propan-2-yl}-2-(2H-1,2,3-triazol-2-yl)benzamide]	602	5
